# Measured values as given in ChEMBL document CHEMBL1201862, “PubChem BioAssay data set” (2004).
#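 Assay format: 96-well plates, 48-hour exposure. The concentration for 50% growth inhibition is given as GI50.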 The source made the active and inactive calls. Rule as the data show it: active = GI50 up to about 1.1 µM and inactive = higher.
# How the values were obtained:
# Test in all cases: DTP human tumour cell line panel, 48 h
# [1] = system: OVCAR-5
# [2] = system: HOP-62
# [3] = system: SNB-75
# [4] = system: MCF7
# [5] = system: CCRF-CEM
# [6] = system: MDA-MB-435
# [7] = system: CAKI-1
# [8] = system: OVCAR-4
# [9] = system: IGROV-1
# [10] = system: K562
# [11] = system: COLO 205
# [12] = system: HT-29
# [13] = system: HCT-116
# [14] = system: Malme-3M
# [15] = system: HCT-15
# [16] = system: MDA-N
# [17] = system: RXF 393
# [18] = system: LOX IMVI
# [19] = system: SK-OV-3
Structure (SMILES),GI50 [1],GI50 [2],GI50 [3],GI50 [4],GI50 [5],GI50 [6],GI50 [7],GI50 [8],GI50 [9],GI50 [10],GI50 [11],GI50 [12],GI50 [13],GI50 [14],GI50 [15] [µM],GI50 [16],GI50 [17],GI50 [18],GI50 [19]
COC(=O)CN1CCN(c2cccc3c2CCCC3)CC1,48.9 µM (inactive),> 100 µM (inactive),43.6 µM (inactive),37 µM (inactive),47.9 µM (inactive),40.5 µM (inactive),> 100 µM (inactive),52.8 µM (inactive),> 100 µM (inactive),90.2 µM (inactive),29.2 µM (inactive),18.2 µM (inactive),32.4 µM (inactive),24.5 µM (inactive),> 100,> 100 µM (inactive),> 100 µM (inactive),43.5 µM (inactive),–
CC(=O)Nc1ccc2nc(-c3ccccn3)c(-c3ccccn3)nc2c1,> 100 µM (inactive),–,> 100 µM (inactive),> 100 µM (inactive),> 100 µM (inactive),> 100 µM (inactive),> 100 µM (inactive),> 100 µM (inactive),> 100 µM (inactive),> 100 µM (inactive),> 100 µM (inactive),–,–,> 100 µM (inactive),> 100,> 100 µM (inactive),89.7 µM (inactive),> 100 µM (inactive),–
O=C(N/N=C/c1ccc(Cl)cc1)c1cc(I)cc(I)c1O,> 100 µM (inactive),> 100 µM (inactive),94.2 µM (inactive),> 100 µM (inactive),> 100 µM (inactive),> 100 µM (inactive),> 100 µM (inactive),> 100 µM (inactive),> 100 µM (inactive),> 100 µM (inactive),> 100 µM (inactive),> 100 µM (inactive),> 100 µM (inactive),–,> 100,> 100 µM (inactive),> 100 µM (inactive),> 100 µM (inactive),> 100 µM (inactive)
O=S(=O)(O)c1ccc(O)c2ncc(Cl)cc12,> 100 µM (inactive),> 100 µM (inactive),> 100 µM (inactive),> 100 µM (inactive),> 100 µM (inactive),> 100 µM (inactive),> 100 µM (inactive),> 100 µM (inactive),> 100 µM (inactive),> 100 µM (inactive),> 100 µM (inactive),> 100 µM (inactive),> 100 µM (inactive),–,> 100,> 100 µM (inactive),> 100 µM (inactive),> 100 µM (inactive),–
CC1=CC(C2/C(=N/O)C=C(C)CC2(C)C)C(O)C(C)(C)C1 (stereo not given),19.1 µM (inactive),14.9 µM (inactive),14.8 µM (inactive),15.3 µM (inactive),22.8 µM (inactive),16.4 µM (inactive),15 µM (inactive),15 µM (inactive),17.3 µM (inactive),14.2 µM (inactive),17.1 µM (inactive),14.3 µM (inactive),15.7 µM (inactive),–,16.3,17 µM (inactive),15.3 µM (inactive),16.8 µM (inactive),17.9 µM (inactive)
COC(=O)[C@@H]1[C@H]2CC[C@]3(C)[C@@H](OC(C)=O)CC[C@H]3[C@@H]2CC[C@H]1C(C)=O,> 100 µM (inactive),> 100 µM (inactive),> 100 µM (inactive),> 100 µM (inactive),> 100 µM (inactive),> 100 µM (inactive),> 100 µM (inactive),–,> 100 µM (inactive),> 100 µM (inactive),> 100 µM (inactive),> 100 µM (inactive),> 100 µM (inactive),> 100 µM (inactive),> 100,> 100 µM (inactive),> 100 µM (inactive),> 100 µM (inactive),> 100 µM (inactive)
C#Cc1cc(Br)c(OC(=O)C(C)(C)C)c(-c2cc(C#C)cc(Br)c2OC(=O)C(C)(C)C)c1,21.2 µM (inactive),55.6 µM (inactive),–,26.7 µM (inactive),10.3 µM (inactive),45.8 µM (inactive),61.8 µM (inactive),73.1 µM (inactive),76.9 µM (inactive),35.8 µM (inactive),31 µM (inactive),22.1 µM (inactive),21 µM (inactive),> 100 µM (inactive),32.6,31.8 µM (inactive),17.4 µM (inactive),19.7 µM (inactive),> 100 µM (inactive)
CC1=C(C(=O)NC(C)(C)C)CC(C(=O)NC(C)(C)C)C(C)N1 (stereo not given),> 100 µM (inactive),> 100 µM (inactive),40.4 µM (inactive),> 100 µM (inactive),61 µM (inactive),93.8 µM (inactive),> 100 µM (inactive),> 100 µM (inactive),> 100 µM (inactive),> 100 µM (inactive),> 100 µM (inactive),> 100 µM (inactive),> 100 µM (inactive),–,> 100,> 100 µM (inactive),> 100 µM (inactive),> 100 µM (inactive),> 100 µM (inactive)
